Test results: patent US6897319B2, “Useful aroyl pyrrole heteroaryl methanones and methanols” (Ortho-McNeil Pharmaceutical, Inc., priority 2001, dated 2005)

Key:
[1] = system: mechanical allodynia after L5 spinal nerve ligation; assay: Chung Model (spinal nerve ligation) antiallodynic effect; type: in vivo; conditions: po; rat, orally administered
Description: Procedure for Testing Antiallodynic Effect
The procedure used to detect the antiallodynic effect of a compound of the present invention for which there is a good correlation with human efficacy for the treatment of pain is the procedure for the measurement of allodynia found in the Chung Model (Kim S. H. and Chung J. M., An Experimental Model for Peripheral Neuropathy Produced by Segmental Spinal Nerve Ligation in the Rat, Pain, 1992, 50, 355-363). The antiallodynic effect of the composition of the present invention in the Chung Model is expressed in % MPE (Maximum Possible Effect).
Male Sprague-Dawley rats, weighing approximately 200 g each were anesthetized with isoflurane. The spinal nerve at the level of L5 was exposed through an incision just left of the dorsal midline and tightly ligated with 6-0 silk. At various times after surgery, animals were tested for mechanical allodynia with von Frey hairs (monofilaments which are calibrated to bend under a certain amount of pressure, ranging from 0.41 to 15.1 g). In order to calculate a paw withdrawal threshold (PWT), tactile allodynia was measured by recording the pressure at which the affected paw was withdrawn from graded stimuli according to the procedure of S. R. Chaplan, J. W. Pogrel, T. L. Yaksh, Role of Voltage-Dependent Calcium Channel Subtypes in Experimental Tactile Allodynia, J. Pharmacol. Exp. Ther., 1994, 269, 1117-1123. Normal rats can withstand at least 15 g of pressure without responding. Operated rats, however, can respond to as little as 0.25 g of pressure. The surgery was deemed successful if the animal responded with a PWT of less than 4 g of pressure applied to the affected paw. […] The PWT was used to calculate the % maximal possible effect (% MPE) according to the formula: %MPE=100×[(PWT−CT)/(CO−CT)]; wherein PWT is defined as Paw Withdrawal Threshold, CT is Control Threshold, and CO is Cut Off (defined as 15 g).
The sham operation consisted of a similar surgery; the spinal nerve was visualized without being ligated.
Compounds selected from Formula (I) and Formula (II) were tested for activity in treating or modulating neuropathic pain by being dissolved or suspended in either water or hydroxypropyl methylcellulose, respectively. Postoperative animals between 14 to 42 days were fasted overnight prior to dosing. Animals were orally dosed and dosage volumes were calculated on a 4 mL/kg basis.

[2] = system: carrageenan-induced paw swelling; assay: Carrageenan Paw Edema Model; type: in vivo; conditions: rat, 100 mg/kg p.o., 2 hours post carrageenan administration
Description: Procedure for Testing Antiinflammatory Response
The procedure used to detect the antiinflammatory activity of a compound of the present invention for which there is a good correlation with human efficacy is the Carrageenan Paw Edema Model (as described in Levy, L., Carrageenan Paw Edema in the Mouse, Life Sci., 1969, 8, 11, 601-6).
Male, Sprague-Dawley rats (Charles River Laboratories) 175-200 g are housed in a climate-controlled, virus free environment for at least 5 days prior to testing.
Carrageenan is prepared in saline (0.5% carrageenan solution in 0.9% saline) and injected in a 0.1 mL volume into the footpad of the rat. Test compound is administered orally by gavage 30-60 minutes prior to footpad challenge. Paws are dipped into a mercury plethysmograph edema computer (Buxco Electronics) and the foot displacement is recorded at 0 time and at various times after challenge with carrageenan. Rats treated with test compound are compared to vehicle controls for any inhibition of carrageenan induced paw swelling.
The % Inhibition (% I) by a compound tested was calculated according to the formula: %I=100−[100×(TCPV/VCPV)]; wherein TCPV is defined as the mean Change in Paw Volume in the Treated group and VCPV is the mean Change in Paw Volume in the Vehicle group.

[3] = system: voltage-gated sodium channels; assay: Fluorometric membrane potential assay in SK-N-SH cells (veratridine stimulus, FLIPR); type: cell-based; conditions: 10 μM compound, 5 μM veratridine
Protocol: Screening Assay for Voltage-Gated Sodium Channel Antagonists Fluorometric Membrane Potential Assay
(§1) SK-N-SH neuroblastoma cells were maintained in a propagation medium containing modified Eagle's medium and 10% (v/v) fetal bovine serum and were incubated at 37° C. in a 5% CO2 atmosphere. Only cells with fewer than 20 passages were used in each assay. All drugs were prepared in DMSO, and the final concentration of solvent was less than 0.1% (v/v). Veratridine, a toxin that selectively promotes persistent activation of voltage-gated sodium channels, served as the stimulus. 24 hr prior to testing, 1×10^5 cells/well were plated into 96-well plates specifically designed for use in a fluorescent imaging plate reader (FLIPR) (Molecular Devices, Sunnyvale, Calif.)
Prior to screening, monolayers of cells were loaded with 100 μL/well of a proprietary voltage-sensitive dye (Molecular Devices, Sunnyvale, Calif.) for 30 min at 37° C. After this incubation period, the cells were stimulated with 5 μM veratridine in the presence or absence of investigational compounds (prepared at a final concentration of 10 μM in DMSO). A sample containing 5 μM veratridine and 10 μM tetrodotoxin accounted for nonspecific activity. The fluorescence was monitored by the FLIPR (Molecular Devices) from 10 sec prior to drug addition (50 μL) to 170 sec after drug addition at 25° C. During sodium channel activation, the cells depolarize and the dye associates with cell membranes, resulting in increased fluorescence.

[4] = system: voltage-gated sodium channels; assay: [14C]guanidinium flux assay in SK-N-SH cells (veratridine stimulus); type: cell-based; conditions: 10 μM compound, 100 μM veratridine
Protocol: Screening Assay for Voltage-Gated Sodium Channel Antagonists [^14C] Guanidinium Flux Assay
as §1, with “stimulus.” for “stimulus. 24 hr prior to testing, 1×10^5 cells/well were plated into 96-well plates specifically designed for use in a fluorescent imaging plate reader (FLIPR) (Molecular Devices, Sunnyvale, Calif.)”
SK-N-SH cells were plated at 1×10^5 cells/well in 96-well Cytostar-T microscintillating plates in propagation medium and experiments were performed 6-7 days after plating. Prior to assay, the SK-N-SH cells were washed twice with assay buffer containing 50 mM HEPES (pH 7.45), 5.4 mM potassium chloride, 0.8 mM magnesium chloride, 130 mM choline chloride, 5.5 mM glucose and 0.1 mg/mL bovine serum albumin. Next, the plates were allowed to equilibrate for 10 min at 37° C. in assay buffer. After this incubation period, the cells were stimulated with 100 μM veratridine in the presence or absence of investigational compounds prepared in a 96-well plate (prepared at a final concentration of 10 μM in DMSO). The 96-well dosing plate was prepared by mixing 25 μL of a drug/assay buffer solution per well with 25 μL of 0.7 μCi/mL [^14C]guanidine hydrochloride in assay buffer. 50 μL aliquots from the dosing plate were then added to the cells. One sample containing 100 μM veratridine and 10 μM tetrodotoxin accounted for nonspecific activity. The plates were incubated for 1 hr at room temperature and the radioactivity was counted in a 1450 Microbeta scintillation counter.

## Cn1cc(C(=O)c2ccncc2)cc1C(=O)c1ccc(Cl)cc1 [Cpd 1, [5-(4-Chlorobenzoyl)-1-methyl-1H-pyrrol-3-yl]pyridin-4-ylmethanone]
[1]
  ED50: 22 mg/kg
[2]
  % inhibition of carrageenan-induced paw swelling: 35%
[3]
  % FI at 10 μM (% fluorescence inhibition): 32%
[4]
  % GFI at 10 μM (% guanidinium flux inhibition): 23%
